Results as given in patent US10633348B2, “Methods to treat lymphoplasmacytic lymphoma” (Dana-Farber Cancer Institute, Inc., priority 2013, dated 2020).
Like-named read-outs stand apart in the source and are kept apart here.

Experiments:
Assay type in all cases: cell-based
[1] = system: 260 kinases in A375 cells; conditions: 1.0 μM
[2] = system: OCI-Ly7; assay: CellTiter-Glo cell viability assay; conditions: Homo sapiens, 72 hours
[3] = system: TMD8; assay: CellTiter-Glo cell viability assay; conditions: Homo sapiens, 72 hours
[4] = system: MST4
[5] = system: MAP3K1
[6] = system: PEK
[7] = system: Mec1; assay: CellTiter-Glo cell viability assay; conditions: Homo sapiens, 72 hours
[8] = system: OCI-Ly3; assay: CellTiter-Glo cell viability assay; conditions: Homo sapiens, OCI-Ly3, 72 h
[9] = system: MAST3
[10] = system: CDK6
[11] = system: MER
[12] = system: MET
[13] = system: MAP3K2
[14] = system: JAK1
[15] = system: TYK2 domain2
[16] = system: MAP2K1
[17] = system: PITSLRE; assay: KiNativ kinase profiling in A375 cells; conditions: Lys2, SEQ ID NO 152, 1.0 μM
[18] = system: MST4, YSK1; assay: KiNativ kinase profiling in A375 cells; conditions: Lys2, SEQ ID NO 114, 1.0 μM
[19] = system: MAP2K6
[20] = system: RSK1 domain1
[21] = system: Wnk1, Wnk2; assay: KiNativ kinase profiling in A375 cells; conditions: ATP Loop, SEQ ID NO 193, 1.0 μM
[22] = system: PIK3CB

Which KiNativ inhibition ([1]; AKT2, AKT3, ATP Loop, SEQ ID NO 204) does the source give for `CCN1CCN(Cc2ccc(NC(=O)c3ccc(C)c(Oc4ccnc(Nc5cnn(C)c5)n4)c3)cc2C(F)(F)F)CC1` [(A-14), N-(4-((4-ethylpiperazin-1-yl)methyl)-3-(trifluoromethyl)phenyl)-4-methyl-3-((2-((1-methyl-1H-pyrazol-4-yl)amino)pyrimidin-4-yl)oxy)benzamide] here?
Its KiNativ inhibition is −19.7%.

What about the KiNativ inhibition ([1]; AMPKa1, AMPKa2, Lys2, SEQ ID NO 205) of the same molecule?
The KiNativ inhibition was −17.5%.

And the KiNativ inhibition ([1]; AurA, AurB, AurC, ATP Loop, SEQ ID NO 211)?
The KiNativ inhibition was −2.4%.

What about the KiNativ inhibition ([1]; CDK11, CDK8, Lys2, SEQ ID NO 224) of the same molecule?
Its KiNativ inhibition is 49.2%.

And the KiNativ inhibition ([1]; CK1g1, CK1g2, CK1g3, ATP Loop, SEQ ID NO 235)?
The KiNativ inhibition was 1.3%.

And the KiNativ inhibition ([1]; CK1d, CK1e, Lys2, SEQ ID NO 234)?
The KiNativ inhibition was −9.3%.

What about the KiNativ inhibition ([1]; JNK1, JNK2, JNK3, Lys2, SEQ ID NO 276) of the same molecule?
The KiNativ inhibition was 31.5%.

And the KiNativ inhibition ([1]; KSR1, KSR2, Activation Loop, SEQ ID NO 280)?
The KiNativ inhibition was 1.4%.

What about the KiNativ inhibition ([1]; MAP2K1, MAP2K2, Lys1, SEQ ID NO 289) of the same molecule?
The KiNativ inhibition was 9.4%.

What about the KiNativ inhibition ([1]; MAP2K1, MAP2K2, Lys2, SEQ ID NO 290) of the same molecule?
The KiNativ inhibition was 2.2%.

And the KiNativ inhibition ([1]; MAP3K2, MAP3K3, Lys2, SEQ ID NO 299)?
The KiNativ inhibition was 8.4%.

And the KiNativ inhibition ([1]; MARK2, MARK3, Lys2, SEQ ID NO 304)?
The KiNativ inhibition was −15.6%.

What about the KiNativ inhibition ([1]; MARK3, MARK4, Lys1, SEQ ID NO 306) of the same molecule?
The KiNativ inhibition was −7.5%.

And the KiNativ inhibition ([1]; MAST1, MAST2, Lys2, SEQ ID NO 308)?
The KiNativ inhibition was −24.8%.

What about the KiNativ inhibition ([1]; MER, TYRO3, Activation Loop, SEQ ID NO 313) of the same molecule?
The KiNativ inhibition was 21.2%.

And the KiNativ inhibition ([1]; MST4, YSK1, Lys2, SEQ ID NO 325)?
Its KiNativ inhibition is −2.4%.

And the KiNativ inhibition ([1]; MYO3A, MYO3B, Lys2, SEQ ID NO 326)?
The KiNativ inhibition was 22.9%.

What about the KiNativ inhibition ([1]; NEK6, NEK7, Lys2, SEQ ID NO 333) of the same molecule?
The KiNativ inhibition was −1.8%.

And the KiNativ inhibition ([1]; PCTAIRE2, PCTAIRE3, Lys1, SEQ ID NO 346)?
Its KiNativ inhibition is 72.9%.

What about the KiNativ inhibition ([1]; PI4KA, PI4KAP2, ATP, SEQ ID NO 353) of the same molecule?
Its KiNativ inhibition is 2.1%.

And the KiNativ inhibition ([1]; PKCa, PKCb, Lys2, SEQ ID NO 364)?
The KiNativ inhibition was −86.4%.

What about the KiNativ inhibition ([1]; ROCK1, ROCK2, Lys2, SEQ ID NO 377) of the same molecule?
Its KiNativ inhibition is −0.2%.

And the KiNativ inhibition ([1]; RSK1 domain1, RSK2 domain1, RSK3 domain1, Lys2, SEQ ID NO 379)?
Its KiNativ inhibition is −25.1%.

What about the KiNativ inhibition ([1]; SRPK1, SRPK2, Lys1, SEQ ID NO 391) of the same molecule?
The KiNativ inhibition was −38.7%.

And the KiNativ inhibition ([1]; TAO1, TAO3, Lys2, SEQ ID NO 396)?
Its KiNativ inhibition is 87.1%.

What about the KiNativ inhibition ([1]; Wnk1, Wnk2, Wnk3, Lys2, SEQ ID NO 406) of the same molecule?
Its KiNativ inhibition is −1.1%.

And the KiNativ inhibition ([1]; Wnk1, Wnk2, ATP Loop, SEQ ID NO 405)?
Its KiNativ inhibition is 11.2%.

And the KiNativ inhibition ([1]; ZC1/HGK, ZC2/TNIK, ZC3/MINK, Lys2, SEQ ID NO 410)?
Its KiNativ inhibition is 57.5%.

And the KiNativ inhibition ([1]; p38d, p38g, Lys2, SEQ ID NO 341)?
Its KiNativ inhibition is 51.5%.

What about the EC50 [2] of the same molecule?
Its EC50 is 0.173 µM.

What about the EC50 [3] of the same molecule?
Its EC50 is 0.045 µM.

Which results are given for `CCN1CCN(Cc2ccc(NC(=O)c3ccc(C)c(Oc4cc(N)ncn4)c3)cc2C(F)(F)F)CC1` [(A-4), 3-((6-aminopyrimidin-4-yl)oxy)-N-(4-((4-ethylpiperazin-1-yl)methyl)-3-(trifluoromethyl)phenyl)-4-methylbenzamide]?
inhibition of kinase labeling [4]: 6.2%; inhibition of kinase labeling [5]: 26.9%; inhibition of kinase labeling [6]: 9.4%; EC50 [7]: 14.3 µM; EC50 [8]: 31.9 µM; inhibition of kinase labeling [9]: −8.1%; inhibition of kinase labeling [10]: 13.1%; inhibition of kinase labeling [11]: 49.8%; inhibition of kinase labeling [12]: −21.0%; inhibition of kinase labeling [13]: 4.2%; inhibition of kinase labeling [14]: 4.3%; inhibition of kinase labeling [15]: −18.1%; inhibition of kinase labeling [16]: 11.4%; inhibition of kinase labeling [17]: −10.4%; inhibition of kinase labeling [18]: 4.6%; inhibition of kinase labeling [19]: 0.5%; inhibition of kinase labeling [20]: −20.9%; inhibition of kinase labeling [21]: 24.2%; inhibition of kinase labeling [22]: 27.8%
